Data on 14 compounds can be found in patent US5317018A, “Benzodiazepines and compositions for treating anxiety and panic disorders, and idiopathic and psychomotor epilepsy” (priority 1992, dated 1994).

Entries after “also recorded” stand apart in the source; their conditions may differ. Where two headings read alike, the source gives them in different places.

Test [1] has as its system rats. As to the kind of experiment: Vogel punished drinking test, conflict paradigm (anticonflict effect). The following applies: Rattus norvegicus, iv, 0.25 h; i.v., 15 min before test, shock 0.8 mA; fiducial limits on following line. The format is in vivo.
The test system of test [2] is rats. As to the kind of experiment: Vogel punished drinking test with PTZ, proconflict paradigm (anti-proconflict effect, anti-proconflict index). The following applies: for ED50: Rattus norvegicus, iv, 0.25 h, i.v., 15 min before test, PTZ i.p., shock 0.35 mA, fiducial limits on following line; for anti-proconflict index: ratio of ED50 values anticonflict/antiproconflict; for antiproconflict index compared with reference compounds: in words, vs Bretazenil, prior art compound or diazepam. The format is in vivo, rat.

Test [3] in a line: Duration of action at doses equipotent to Bretazenil. The format is in vivo.
For test [4], the system named is rats. Conditions: background, cited from earlier work; for potency in antagonizing conflict and proconflict responses: in words; for anti-proconflict index: Giusti et al. 1991.
The subject of test [5] is rats. As to the kind of experiment: Chemical kindling with pentylenetetrazole (PTZ), kindled seizures. The format is in vivo, rat. The following applies: per os; for ED50 vs kindled seizures: 30 min before PTZ 30 mg/kg i.p., n 25; for potency relative to diazepam in kindling seizure test: PTZ kindling. As for the experimental part: Kindled seizures were induced in rats by i.p. injection of 30 mg/kg of PTZ every 2nd day for 9 weeks.

In test [6] the test system is rats. Conditions: background, in words; cited from earlier work.
The conditions of test [7]: background, in words; cited from earlier work.
Test [8] deals with rats. As to the kind of experiment: Development of tolerance to the anticonvulsant effect against bicuculline seizures. The class given is in vivo, rat. Conditions: oral; for development of tolerance to anticonvulsant action: 3 times daily up to 70 days, in words. As for the experimental part:
The bicuculline seizure test (see Massotti et al., J. Pharmacol. Exp. Ther. 256: 1154-1156, 1991) consists in infusing a bicuculline solution (0.27 μmol/kg) into the rat tail vein at a constant rate (0.46 ml/min) and records the first sign of myoclonic jerk and the full myoclonic convulsion. The dose of bicuculline required to elicit these responses was taken as an index of the efficacy of diazepam and inventive compounds against seizures induced by a decrease of GABAergic tone (Massotti et al., J. Pharmacol. Exp. Ther. 256: 1154-1160, 1990). […] Possible development of tolerance to the antagonism of bicuculline convulsion was tested on various days after the beginning of the protracted treatment with the inventive compounds.

For `NC(=O)c1ncn2c1CN=C(c1ccccc1Cl)c1cc(Cl)ccc1-2` [8-chloro-6-(2-chlorophenyl) -4H-imidazo-[1,5-a][1,4]benzodiazepine-3-carboxamide, reference compound], the ED50 in test [1] turned out to be 2 µmol/kg. In addition, in test [2], it took a dose of 0.45 µmol/kg to reach the 50% effect level (ED50) and the “anti-proconflict index” value is reported as 5.0.

In test [1], `CC(C)(C)OC(=O)c1ncn2c1[C@@H]1CCCN1C(=O)c1c(Br)cccc1-2` [Bretazenil, reference compound] showed a 50% effective dose (ED50) of 2.4 µmol/kg. This compound showed a duration of action in test [3] (Bretazenil, equipotent dose) of 0.25 to 0.75 h. Further, in test [4], the “potency in antagonizing conflict and proconflict responses” value was “surpassed those of the anxiolytic BZD ligands diazepam, zolpidem, alpidem, and midazolam; also recorded: significantly more potent in antagonizing the proconflict effect”; the anti-proconflict index was about 10. In addition, in test [2], the 50% effect level (ED50) was put at a dose of 0.2 µmol/kg and the “anti-proconflict index” value was 12.

`CN1C(=O)CN=C(c2ccccc2)c2cc(Cl)ccc21` [Diazepam, reference compound]: in test [5], the “ED50 vs kindled seizures” value is on record as 5.7 (2.9-11.2). In addition, the ED50 in test [1] was 2 µmol/kg; in test [2], 1.9 µmol/kg. Besides, in test [6], the “prevention of development of kindling seizures” value is reported as “powerful agents to prevent the development of seizures”. For the same compound, the figures for the anti-proconflict index in test [4] and in test [2] were about 1 and 1, respectively. The “development of tolerance in chronic maintenance therapy” value in test [7] is reported as “rapid development of tolerance”. Moreover, in test [8], the “development of tolerance to anticonvulsant action” value was “developed after a few days of treatment”.

With `NC(=O)c1ncn2c1CN=C(c1ccccc1Br)c1cc(F)ccc1-2` [Example 9, 6-(2-Bromophenyl)-8-fluoro-4H-imidazo[1,5-a][1,4]benzodiazepine-3-carboxamide], in test [5], the “ED50 vs kindled seizures” value is reported as 0.25 (.071-0.883) and the “potency relative to diazepam in kindling seizure test” value (“potency relative to diazepam” for short) is “approximately 20 fold”. For the same compound, the ED50 in test [1] came to 2.9 µmol/kg. Also, in test [8] (3 times daily), the “days of treatment without anticonvulsant tolerance” value is at least 70 days. The “development of tolerance to anticonvulsant action” value in test [8] is listed as “maintained its anticonvulsant effect unabated without tolerance”. In addition, in test [2], it took a dose of 0.061 µmol/kg to reach the 50% effect level (ED50), the “antiproconflict index compared with reference compounds” value (shortened to “antiproconflict index”) is reported as “antiproconflict index larger than that of Bretazenil” and the “anti-proconflict index” value is on record as 48.

With `CCNC(=O)c1ncn2c1CN=C(c1ccccc1Br)c1cc(F)ccc1-2` [Example 10, 6-(2-Bromophenyl)-N-ethyl-8-fluoro-4H-imidazo[1,5-a][1,4]-benzodiazepine-3-carboxamide], the “potency relative to diazepam” value in test [5] was determined as 12 fold. Also, the 50% effect level in test [1] (ED50) was put at a dose of 2.8 µmol/kg. Moreover, in test [2], the ED50 worked out at 0.079 µmol/kg, the “antiproconflict index” value is “antiproconflict index larger than that of Bretazenil” and the “anti-proconflict index” value came to 35.

With `CCCNC(=O)c1ncn2c1CN=C(c1ccccc1Br)c1cc(F)ccc1-2` [Example 11(a)], in test [5], the “potency relative to diazepam” value came out at 2.2 fold. In test [1], this compound returned an ED50 of 2.74 µmol/kg. The compound also registered a duration of action in test [3] (equipotent doses to Bretazenil) of 3 to 6 h. Also, in test [2], the median effective dose (ED50) came out at 0.44 µmol/kg and the “antiproconflict index” value is on record as “better than diazepam”.

On to `CC(C)NC(=O)c1ncn2c1CN=C(c1ccccc1Br)c1cc(F)ccc1-2` [Example 11(b), 6-(2-Bromophenyl)-8-fluoro-N-(1-methylethyl)-4-H-imidazo[1,5-a][1,4]benzodiazepine-3-carboxamide], for which, in test [5], the “potency relative to diazepam” value is recorded as 2.5 fold. This compound returned an ED50 in test [1] of 1.72 µmol/kg. The compound further displayed a duration of action in test [3] (equipotent doses to Bretazenil) of 3 to 6 h. For the same compound, in test [2], it took a dose of 0.52 µmol/kg to reach the 50% effect level (ED50) and the “antiproconflict index” value is recorded as “better than diazepam”.

In test [1], `C=CCNC(=O)c1ncn2c1CN=C(c1ccccc1Br)c1cc(F)ccc1-2` [Example 11(c), 6-(2-Bromophenyl)-8-fluoro-N-(2-propenyl)-4H-imidazo[1,5-a][1,4]benzodiazepine-3-carboxamide] registered an ED50 of 3.6 µmol/kg. Further, in test [2], the ED50 came out at 0.18 µmol/kg, the “antiproconflict index” value is “antiproconflict index larger than that of Bretazenil” and the “anti-proconflict index” value is 20.

As to `O=C(NCC1CC1)c1ncn2c1CN=C(c1ccccc1Br)c1cc(F)ccc1-2` [Example 11(d), 6-(2-Bromophenyl)-N-[(cyclopropyl)methyl]-8-fluoro-4H-imidazo[1,5-a][1,4]benzodiazepine-3-carboxamide], in test [5], the “potency relative to diazepam” value is recorded as 2 fold. The compound also registered a median effective dose (ED50) in test [1] of 3.3 µmol/kg. This compound also registered a duration of action in test [3] (equipotent doses to Bretazenil) of 3 to 6 h. Besides, in test [2], the ED50 turned out to be 0.43 µmol/kg and the “antiproconflict index” value is “better than diazepam”.

For `CCCN(CCC)C(=O)Cc1c(-c2ccc(Cl)cc2)nc2ccc(Cl)cn12` [alpidem], the anti-proconflict index in test [4] is listed as about 1.

Regarding `Cc1nnc2n1-c1ccc(Cl)cc1C(c1ccccc1)=NC2` [alprazolam], in test [4], the “potency in antagonizing conflict and proconflict responses” value was “surpassed those of the anxiolytic BZD ligands diazepam, zolpidem, alpidem, and midazolam; also recorded: significantly more potent in antagonizing the proconflict effect”; the anti-proconflict index is about 10.

With `O=C1CN=C(c2ccccc2Cl)c2cc([N+](=O)[O-])ccc2N1` [clonazepam], the “prevention of development of kindling seizures” value in test [6] is “powerful agents to prevent the development of seizures”. In addition, in test [4], the “potency in antagonizing conflict and proconflict responses” value was “surpassed those of the anxiolytic BZD ligands diazepam, zolpidem, alpidem, and midazolam; also recorded: significantly more potent in antagonizing the proconflict effect”; the anti-proconflict index is recorded as about 10. For the same compound, the “development of tolerance in chronic maintenance therapy” value in test [7] is given as “rapid development of tolerance”.

Regarding `Cc1ncc2n1-c1ccc(Cl)cc1C(c1ccccc1F)=NC2` [midazolam], the anti-proconflict index in test [4] is given as about 1.

Regarding `Cc1ccc(-c2nc3ccc(C)cn3c2CC(=O)N(C)C)cc1` [zolpidem], the anti-proconflict index in test [4] is about 1.

As usually defined, the ED50 is the dose that gives a 50% effect, or the effect in half of the subjects. Low readings indicate an effect at a small dose, high ones a need for a large dose.
